Experimental data reported in patent publication EP1931657B1, “NOVEL HIGH AFFINITY QUINOLINE-BASED KINASE LIGANDS” (Merck Sharp & Dohme Corp., priority 2005, dated 2007).

The compounds below were run against CDK-2 (Homo sapiens, UniProt P24941) (assay: CDK-2 inhibition, fluorescence polarization displacement assay).
Protocol: Binding assays were performed in a 384 well Costar NBS coated plate. […] The concentration of BMS-Alexa Fluor647 was 50 nM. Serial dilutions of compounds were added to 12 wells. The final buffer concentration was 10 mM Hepes, pH 7.5, 150 mM NaCl, and 1 mM DTT. Samples were incubated at room temperature for 15 minutes and then read in an Analyst HT instrument using an excitation and emission wavelength of 580 and 680 nm, respectively.
CC(C)(C)S(=O)(=O)Nc1cc(C(=O)N[C@H](CN)Cc2ccc(O)cc2)nc2ccc(C#Cc3ccccn3)cc12 [Compound 225] gave an IC50 greater than 40 µM.
In the case of COC(=O)[C@H](Cc1ccc(O)cc1)NC(=O)c1cc(C(=O)O)c2cc(-c3ccc(C(C)C)cc3)ccc2n1 [Compound 72], the IC50 is reported as less than 1 µM.
COC(=O)[C@H](Cc1ccc(O)cc1)NC(=O)c1cc(C(=O)O)c2cc(-c3ccc4ccccc4c3)ccc2n1 [Compound 133] showed an IC50 of 1 to 40 µM.
Work on N#CC[C@H](Cc1ccc(O)cc1)NC(=O)c1cc(C(=O)O)c2cc(CCc3ccccc3)ccc2n1 [Compound 116] yielded an IC50 of 1 to 40 µM.
COC(=O)[C@H](Cc1ccc(O)cc1)NC(=O)c1cc(C(=O)O)c2cc(-c3ccccc3OC)ccc2n1 [Compound 151] showed an IC50 of 1 to 40 µM.
Compound COC[C@H](Cc1ccc(O)cc1)NC(=O)c1cc(C(=O)O)c2cc(/C=C/c3cccnc3)ccc2n1 [Compound 188] has an IC50 greater than 40 µM.
For COC(=O)[C@H](Cc1ccc(O)cc1)NC(=O)c1cc(C(=O)O)c2cc(/C=C/C(C)(C)C)ccc2n1 [Compound 11], the IC50 was less than 1 µM.
For COC(=O)[C@H](Cc1ccc(O)cc1)NC(=O)c1cc(C(=O)O)c2cc(CCC(C)(C)C)ccc2n1 [Compound 52], the IC50 was less than 1 µM.
NC[C@H](Cc1ccc(O)cc1)NC(=O)c1cc(C(=O)O)c2cc(CCc3ccc(Cl)cc3)ccc2n1 [Compound 97] showed an IC50 of 1 to 40 µM.
With COC[C@H](Cc1ccc(O)cc1)NC(=O)c1cc(C(=O)O)c2cc(COc3ccccn3)ccc2n1 [Compound 207] the IC50 was greater than 40 µM.
In the case of COC(=O)[C@H](Cc1ccc(O)cc1)NC(=O)c1cc(NS(C)(=O)=O)c2cc(-c3cccc(C(F)(F)F)c3)ccc2n1 [Compound 64], the IC50 is reported as less than 1 µM.
Work on COC[C@H](Cc1ccc(O)cc1)NC(=O)c1cc(C(=O)O)c2cc(C#Cc3cccnc3)ccc2n1 [Compound 137] yielded an IC50 of 1 to 40 µM.
Compound COC[C@H](Cc1ccc(O)cc1)NC(=O)c1cc(C(=O)O)c2cc(-c3cccc(CN(C)C)c3)ccc2n1 [Compound 190] has an IC50 greater than 40 µM.
O=C(NC(Cc1ccc(O)cc1)C1CCCCC1)c1cc(C(=O)O)c2cc(-c3cccc(C(F)(F)F)c3)ccc2n1 (stereo not shown) [Compound 63] gave an IC50 of less than 1 µM.
With COC(=O)[C@H](Cc1ccc(O)cc1)NC(=O)c1cc(C(=O)O)c2cc(-c3cccc(OC)c3)ccc2n1 [Compound 91] the IC50 was 1 to 40 µM.
Compound COC(=O)[C@H](Cc1ccc(O)cc1)NC(=O)c1cc(C(=O)O)c2cc(CCc3ccc(C(F)(F)F)cc3)ccc2n1 [Compound 8] has an IC50 of less than 1 µM.
Compound CCCC(Cc1ccc(O)cc1)NC(=O)c1cc(C(=O)O)c2cc(-c3cccc(C(F)(F)F)c3)ccc2n1 (stereo not shown) [Compound 54] has an IC50 of less than 1 µM.
COC[C@H](Cc1ccc(O)cc1)NC(=O)c1cc(C(=O)O)c2cc(COc3ccccc3OC)ccc2n1 [Compound 201] gave an IC50 greater than 40 µM.
Compound COC(=O)[C@H](Cc1ccc(O)cc1)NC(=O)c1cc(C(=O)O)c2cc(-c3cccc(C(C)C)c3)ccc2n1 [Compound 30] has an IC50 of less than 1 µM.
Compound COC[C@H](Cc1ccc(O)cc1)NC(=O)c1cc(C(=O)O)c2cc(COc3ccc(OC)cc3)ccc2n1 [Compound 200] has an IC50 greater than 40 µM.
Compound COC(=O)[C@H](Cc1ccc(O)cc1)NC(=O)c1cc(C(=O)O)c2cc(-c3cc(C(F)(F)F)cc(C(F)(F)F)c3)ccc2n1 [Compound 112] has an IC50 of 1 to 40 µM.
Work on COC(=O)[C@H](Cc1ccc(O)cc1)NC(=O)c1cc(C(=O)O)c2cc(-c3ccc(Cl)c(F)c3)ccc2n1 [Compound 92] yielded an IC50 of 1 to 40 µM.
O=C(N[C@@H](Cc1ccc(O)cc1)C(=O)NC1CC1)c1cc(C(=O)O)c2cc(/C=C/c3ccc(Cl)cc3)ccc2n1 [Compound 44] was tested, and the IC50 was less than 1 µM.
Compound COC[C@H](Cc1ccc(O)cc1)NC(=O)c1cc(NS(=O)(=O)C(C)(C)C)c2cc(-c3cccc(COc4cccc[n+]4[O-])c3)ccc2n1 [Compound 98] has an IC50 of 1 to 40 µM.
For COC(=O)[C@H](Cc1ccc(O)cc1)NC(=O)c1cc(C(=O)O)c2cc(-c3ccc(Cl)c(Cl)c3)ccc2n1 [Compound 69], the IC50 was less than 1 µM.
Work on COC(=O)[C@H](Cc1ccc(O)cc1)NC(=O)c1cc(C(=O)O)c2cc(-c3cccs3)ccc2n1 [Compound 81] yielded an IC50 of less than 1 µM.
In the case of COC[C@H](Cc1ccc(O)cc1)NC(=O)c1cc(-c2nnn[nH]2)c2cc(-c3cccc(C(F)(F)F)c3)ccc2n1 [Compound 87], the IC50 is reported as less than 1 µM.
For COC[C@H](Cc1ccc(O)cc1)NC(=O)c1cc(C(=O)O)c2cc(C#Cc3ccccn3)ccc2n1 [Compound 125], the IC50 was 1 to 40 µM.
COC(=O)[C@H](Cc1ccc(O)cc1)NC(=O)c1cc(C(=O)O)c2cc(-c3ccc(F)c(C)c3)ccc2n1 [Compound 41] showed an IC50 of less than 1 µM.
For COC[C@H](Cc1ccc(O)cc1)NC(=O)c1cc(C(=O)OCCN(C)C)c2cc(/C=C/c3ccc(Cl)cc3)ccc2n1 [Compound 218], the IC50 was greater than 40 µM.
In the case of COC(=O)[C@H](Cc1ccc(O)cc1)NC(=O)c1cc(C(=O)O)c2cc(-c3ccc(Cl)cc3)ccc2n1 [Compound 83], the IC50 is reported as less than 1 µM.
COC(=O)C(Cc1ccc(O)cc1)NC(=O)c1cc(C(=O)NC(C)(C)C(=O)O)c2cc(-c3cccs3)ccc2n1 (stereo not shown) [Compound 154] showed an IC50 greater than 40 µM.
COC(=O)[C@H](Cc1ccc(O)cc1)NC(=O)c1cc(C(N)=O)c2cc(-c3cccs3)ccc2n1 [Compound 227] showed an IC50 greater than 40 µM.
With COC[C@H](Cc1ccc(O)cc1)NC(=O)c1cc(NS(=O)(=O)C(C)(C)C)c2cc(-c3cccc(COc4ccccn4)c3)ccc2n1 [Compound 27] the IC50 was less than 1 µM.
With COC[C@H](Cc1ccc(O)cc1)NC(=O)c1cc(C(=O)O)c2cc(COc3ccc(Cl)c(F)c3)ccc2n1 [Compound 146] the IC50 was 1 to 40 µM.
CCCCOC(=O)c1cc(C(=O)N[C@@H](Cc2ccc(O)cc2)C(=O)OC)nc2ccc(-c3cccs3)cc12 [Compound 231] showed an IC50 greater than 40 µM.
CC(Cc1ccc(O)cc1)NC(=O)c1cc(C(=O)O)c2cc(-c3cccc(C(F)(F)F)c3)ccc2n1 (stereo not shown) [Compound 110] showed an IC50 of 1 to 40 µM.
Work on COC(=O)[C@H](Cc1ccc(O)cc1)NC(=O)c1cc(C(=O)O)c2cc(-c3cc4ccccc4s3)ccc2n1 [Compound 58] yielded an IC50 of less than 1 µM.
Work on COC(=O)[C@H](Cc1ccc(O)cc1)NC(=O)c1cc(C(=O)O)c2cc(-c3cccc(C(C)=O)c3)ccc2n1 [Compound 104] yielded an IC50 of 1 to 40 µM.
COC(=O)[C@H](Cc1ccc(O)cc1)NC(=O)c1cc(C(=O)O)c2cc(-c3ccc(Oc4ccccc4)cc3)ccc2n1 [Compound 51] gave an IC50 of less than 1 µM.
For COC[C@H](Cc1ccc(O)cc1)NC(=O)c1cc(C(=O)O)c2cc(C#CCCC#N)ccc2n1 [Compound 152], the IC50 was 1 to 40 µM.
COC(=O)[C@H](Cc1ccc(O)cc1)NC(=O)c1cc(C(=O)O)c2cc(/C=C/c3ccc(F)cc3)ccc2n1 [Compound 6] gave an IC50 of less than 1 µM.
Work on COC(=O)[C@H](Cc1ccc(O)cc1)NC(=O)c1cc(C(=O)O)c2cc(CCc3ccc(F)cc3)ccc2n1 [Compound 31] yielded an IC50 of less than 1 µM.
COC(=O)[C@H](Cc1ccc(O)cc1)NC(=O)c1cc(C(=O)O)c2cc(-c3ccc(S(C)(=O)=O)cc3)ccc2n1 [Compound 157] showed an IC50 greater than 40 µM.
In the case of COC(=O)[C@H](Cc1ccc(OC)cc1)NC(=O)c1cc(S(C)(=O)=O)c2cc(-c3cccc(C(F)(F)F)c3)ccc2n1 [Compound 171], the IC50 is reported as greater than 40 µM.
Work on COC(=O)c1cc(C(=O)N[C@@H](Cc2ccc(O)cc2)C(=O)OC)nc2ccc(-c3cccs3)cc12 [Compound 229] yielded an IC50 greater than 40 µM.
Compound COC[C@H](Cc1ccc(O)cc1)NC(=O)c1cc(C(=O)OCC(O)CO)c2cc(-c3cccc(C(F)(F)F)c3)ccc2n1 (stereo partly shown) [Compound 174] has an IC50 greater than 40 µM.
COC(=O)[C@H](Cc1ccc(O)cc1)NC(=O)c1cc(C(=O)O)c2cc(-c3cccc(-c4ccccc4)c3)ccc2n1 [Compound 42] was tested, and the IC50 was less than 1 µM.
For CCCCOC(=O)c1cc(C(=O)N[C@H](COC)Cc2ccc(O)cc2)nc2ccc(-c3cccc(C(F)(F)F)c3)cc12 [Compound 177], the IC50 was greater than 40 µM.
Work on COC(=O)[C@H](Cc1ccc(O)cc1)NC(=O)c1cc(C(=O)O)c2cc(-c3ccc(C)c([N+](=O)[O-])c3)ccc2n1 [Compound 49] yielded an IC50 of less than 1 µM.
For COC[C@H](Cc1ccc(O)cc1)NC(=O)c1cc(NS(=O)(=O)C(C)(C)C)c2cc(-c3cccc(COc4cccnc4)c3)ccc2n1 [Compound 139], the IC50 was 1 to 40 µM.
With COC[C@H](Cc1ccc(O)cc1)NC(=O)c1cc(C(=O)O)c2cc(C#CCCCCN)ccc2n1 [Compound 203] the IC50 was greater than 40 µM.
For COC(=O)[C@H](Cc1ccc(O)cc1)NC(=O)c1cc(C(=O)O)c2cc(-c3cccc(F)c3)ccc2n1 [Compound 93], the IC50 was 1 to 40 µM.
Compound COC(=O)[C@H](Cc1ccc(O)cc1)NC(=O)c1cc(C(=O)O)c2cc(-c3cccc(C#N)c3)ccc2n1 [Compound 36] has an IC50 of less than 1 µM.
Work on COC[C@H](Cc1ccc(O)cc1)NC(=O)c1cc(C(=O)NS(C)(=O)=O)c2cc(-c3cccc(C(F)(F)F)c3)ccc2n1 [Compound 95] yielded an IC50 of 1 to 40 µM.
O=C(N[C@@H](Cc1ccc(O)cc1)c1cnco1)c1cc(C(=O)O)c2cc(-c3cccc(C(F)(F)F)c3)ccc2n1 [Compound 99] showed an IC50 of 1 to 40 µM.
COC[C@H](Cc1ccc(O)cc1)NC(=O)c1cc(C(=O)O)c2cc(COc3ccc(C(F)(F)F)cc3)ccc2n1 [Compound 129] gave an IC50 of 1 to 40 µM.
Work on COC[C@H](Cc1ccc(O)cc1)NC(=O)c1cc(C(=O)O)c2cc(C#CCCCCN3CCN(C)CC3)ccc2n1 [Compound 219] yielded an IC50 greater than 40 µM.
COC(=O)[C@H](Cc1ccc(O)cc1)NC(=O)c1cc(C(=O)O)c2cc(-c3ccc(N)cc3)ccc2n1 [Compound 145] showed an IC50 of 1 to 40 µM.
COC[C@H](Cc1ccc(O)cc1)NC(=O)c1cc(C(=O)O)c2cc(CSc3ccccn3)ccc2n1 [Compound 210] showed an IC50 greater than 40 µM.
Compound CCN(CC)Cc1cccc(-c2ccc3nc(C(=O)N[C@H](COC)Cc4ccc(O)cc4)cc(C(=O)O)c3c2)c1 [Compound 183] has an IC50 greater than 40 µM.
COC(=O)[C@H](Cc1cccnc1)NC(=O)c1cc(C(=O)O)c2cc(-c3cccc(C(F)(F)F)c3)ccc2n1 [Compound 164] gave an IC50 greater than 40 µM.
COC[C@H](Cc1ccc(O)cc1)NC(=O)c1cc(C(=O)O)c2cc(CCc3cccnc3)ccc2n1 [Compound 187] was tested, and the IC50 was greater than 40 µM.
COC(=O)[C@H](Cc1ccc(O)cc1)NC(=O)c1cc(C(=O)OCC(N)C(C)C)c2cc(-c3cccs3)ccc2n1 (stereo partly shown) [Compound 228] showed an IC50 greater than 40 µM.
